Data taken from ChEMBL document CHEMBL3272271, “Folate antagonists. 13. 2,4-Diamino-6-](alpha,alpha,alpha-trifluoro-m-tolyl)thio]quinazoline and related 2,4-diamino-6-[(phenyl- and naphthyl)thio]quinazolines, a unique class of antimetabolites with extraordinary antimalarial and antibacterial effects” (J Med Chem, 1978).
Values after ≈ are worked out from the molar mass of the structure shown. Active and inactive are the calls of the source. The rule behind the calls is not given here.

Experiments:
Plasmodium gallinaceum [1] = test: Antimalarial activity against sporozoite-induced Plasmodium gallinaceum infected in white leghorn chicken assessed as disease cure from parasite infection at 15 mg/kg, sc administered 72 hrs after infection; assay type: functional, organism-based; design: dose 15 mg/kg
Pseudomonas aeruginosa = test: Antibacterial activity against Pseudomonas aeruginosa 28 by gradient plate test; assay type: functional
Plasmodium gallinaceum [2] = test: Antimalarial activity against sporozoite-induced Plasmodium gallinaceum infected in white leghorn chicken assessed as disease cure from parasite infection at 30 mg/kg, sc administered 72 hrs after infection; assay type: functional, organism-based; design: dose 30 mg/kg
Enterococcus faecalis = test: Antibacterial activity against Streptococcus faecalis MGH-2 by gradient plate test; assay type: functional
Plasmodium gallinaceum [3] = test: Antimalarial activity against sporozoite-induced Plasmodium gallinaceum infected in white leghorn chicken assessed as disease cure from parasite infection at 480 mg/kg, sc administered 72 hrs after infection; assay type: functional, organism-based; design: dose 480 mg/kg
Plasmodium berghei [4] = test: Antimalarial activity against Plasmodium berghei infected in mouse assessed as increase in mean survival days of host at 10 mg/kg, sc administered 72 hrs after infection relative to control; assay type: functional; conditions: route subcutaneous
Plasmodium gallinaceum [5] = test: Antimalarial activity against sporozoite-induced Plasmodium gallinaceum infected in white leghorn chicken assessed as disease cure from parasite infection at 60 mg/kg, sc administered 72 hrs after infection; assay type: functional, organism-based; design: dose 60 mg/kg
Plasmodium gallinaceum [6] = test: Antimalarial activity against sporozoite-induced Plasmodium gallinaceum infected in white leghorn chicken assessed as disease cure from parasite infection at 240 mg/kg, sc administered 72 hrs after infection; assay type: functional, organism-based; design: dose 240 mg/kg
Plasmodium berghei [7] = test: Antimalarial activity against Plasmodium berghei infected in mouse assessed as increase in mean survival days of host at 40 mg/kg, sc administered 72 hrs after infection relative to control; assay type: functional; conditions: route subcutaneous
Plasmodium berghei [8] = test: Antimalarial activity against Plasmodium berghei infected in mouse assessed as increase in mean survival days of host at 20 mg/kg, sc administered 72 hrs after infection relative to control; assay type: functional; conditions: route subcutaneous
Plasmodium gallinaceum [9] = test: Antimalarial activity against sporozoite-induced Plasmodium gallinaceum infected in white leghorn chicken assessed as disease cure from parasite infection at 120 mg/kg, sc administered 72 hrs after infection; assay type: functional, organism-based; design: dose 120 mg/kg
Shigella sonnei = test: Antibacterial activity against Shigella sonnei C-10 by gradient plate test; assay type: functional
Staphylococcus aureus [10] = test: Antibacterial activity against drug-resistant Staphylococcus aureus S18713 by gradient plate test; assay type: functional
Plasmodium berghei [11] = test: Antimalarial activity against Plasmodium berghei infected in mouse assessed as disease cure from parasite infection at 160 mg/kg, sc administered 72 hrs after infection; assay type: functional, organism-based; design: dose 160 mg/kg
Escherichia coli = test: Antibacterial activity against Escherichia coli Vogel by gradient plate test; assay type: functional
Plasmodium berghei [12] = test: Antimalarial activity against Plasmodium berghei infected in mouse assessed as increase in mean survival days of host at 160 mg/kg, sc administered 72 hrs after infection relative to control; assay type: functional; conditions: route subcutaneous
Plasmodium berghei [13] = test: Antimalarial activity against Plasmodium berghei infected in mouse assessed as disease cure from parasite infection at 320 mg/kg, sc administered 72 hrs after infection; assay type: functional, organism-based; design: dose 320 mg/kg
Staphylococcus aureus [14] = test: Antibacterial activity against Staphylococcus aureus UC-96 by gradient plate test; assay type: functional
Plasmodium gallinaceum [15] = test: Antimalarial activity against sporozoite-induced Plasmodium gallinaceum infected in white leghorn chicken assessed as increase in mean survival days of host at 15 mg/kg, sc administered 72 hrs after infection relative to control; assay type: functional; conditions: route subcutaneous
Plasmodium berghei [16] = test: Antimalarial activity against Plasmodium berghei infected in mouse assessed as disease cure from parasite infection at 80 mg/kg, sc administered 72 hrs after infection; assay type: functional, organism-based; design: dose 80 mg/kg
Plasmodium berghei [17] = test: Antimalarial activity against Plasmodium berghei infected in mouse assessed as increase in mean survival days of host at 80 mg/kg, sc administered 72 hrs after infection relative to control; assay type: functional; conditions: route subcutaneous
Plasmodium berghei [18] = test: Antimalarial activity against Plasmodium berghei infected in mouse assessed as disease cure from parasite infection at 640 mg/kg, sc administered 72 hrs after infection; assay type: functional, organism-based; design: dose 640 mg/kg
[19] = test system: Mycobacterium tuberculosis; test: Antibacterial activity against Mycobacterium tuberculosis H37Ra by gradient plate test; assay type: functional
Plasmodium berghei [20] = test: Antimalarial activity against Plasmodium berghei infected in mouse assessed as increase in mean survival days of host at 320 mg/kg, sc administered 72 hrs after infection relative to control; assay type: functional; conditions: route subcutaneous
Plasmodium berghei [21] = test: Ratio of quinine hydrochloride SD90 to compound SD90 for trophozoite-induced Plasmodium berghei infected in mouse assessed as daily dose required to suppression of 90% parasite infection administered with diet for 6 days; assay type: functional
Plasmodium berghei [22] = test: Antimalarial activity against trophozoite-induced Plasmodium berghei infected in mouse assessed as daily dose required to suppression of 90% parasite infection administered with diet for 6 days; assay type: functional
Plasmodium gallinaceum [23] = test: Antimalarial activity against trophozoite-induced Plasmodium gallinaceum infected in white leghorn chicken assessed as increase in mean survival days of host at 1.25 mg/kg, sc administered 72 hrs after infection relative to control; assay type: functional; conditions: route subcutaneous
Plasmodium gallinaceum [24] = test: Antimalarial activity against trophozoite-induced Plasmodium gallinaceum infected in white leghorn chicken assessed as increase in mean survival days of host at 20 mg/kg, sc administered 72 hrs after infection relative to control; assay type: functional; conditions: route subcutaneous
Plasmodium berghei [25] = test: Antimalarial activity against Plasmodium berghei infected in mouse assessed as increase in mean survival days of host at 5 mg/kg, sc administered 72 hrs after infection relative to control; assay type: functional; conditions: route subcutaneous
Plasmodium gallinaceum [26] = test: Antimalarial activity against trophozoite-induced Plasmodium gallinaceum infected in white leghorn chicken assessed as increase in mean survival days of host at 2.5 mg/kg, sc administered 72 hrs after infection relative to control; assay type: functional; conditions: route subcutaneous
Plasmodium gallinaceum [27] = test: Antimalarial activity against trophozoite-induced Plasmodium gallinaceum infected in white leghorn chicken assessed as increase in mean survival days of host at 5 mg/kg, sc administered 72 hrs after infection relative to control; assay type: functional; conditions: route subcutaneous
Plasmodium berghei [28] = test: Antimalarial activity against Plasmodium berghei infected in mouse assessed as increase in mean survival days of host at 1.25 mg/kg, sc administered 72 hrs after infection relative to control; assay type: functional; conditions: route subcutaneous
Plasmodium gallinaceum [29] = test: Antimalarial activity against trophozoite-induced Plasmodium gallinaceum infected in white leghorn chicken assessed as increase in mean survival days of host at 0.63 mg/kg, sc administered 72 hrs after infection relative to control; assay type: functional; conditions: route subcutaneous
Plasmodium berghei [30] = test: Antimalarial activity against Plasmodium berghei infected in mouse assessed as increase in mean survival days of host at 2.5 mg/kg, sc administered 72 hrs after infection relative to control; assay type: functional; conditions: route subcutaneous
Plasmodium gallinaceum [31] = test: Antimalarial activity against trophozoite-induced Plasmodium gallinaceum infected in white leghorn chicken assessed as increase in mean survival days of host at 10 mg/kg, sc administered 72 hrs after infection relative to control; assay type: functional; conditions: route subcutaneous
Plasmodium gallinaceum [32] = test: Antimalarial activity against trophozoite-induced Plasmodium gallinaceum infected in white leghorn chicken assessed as increase in mean survival days of host at 160 mg/kg, sc administered 72 hrs after infection relative to control; assay type: functional; conditions: route subcutaneous
Plasmodium gallinaceum [33] = test: Antimalarial activity against trophozoite-induced Plasmodium gallinaceum infected in white leghorn chicken assessed as increase in mean survival days of host at 320 mg/kg, sc administered 72 hrs after infection relative to control; assay type: functional; conditions: route subcutaneous
Plasmodium gallinaceum [34] = test: Antimalarial activity against trophozoite-induced Plasmodium gallinaceum infected in white leghorn chicken assessed as increase in mean survival days of host at 40 mg/kg, sc administered 72 hrs after infection relative to control; assay type: functional; conditions: route subcutaneous
Plasmodium gallinaceum [35] = test: Antimalarial activity against trophozoite-induced Plasmodium gallinaceum infected in white leghorn chicken assessed as increase in mean survival days of host at 80 mg/kg, sc administered 72 hrs after infection relative to control; assay type: functional; conditions: route subcutaneous

| SMILES | MIC (Pseudomonas aeruginosa) [µg/mL] | MIC (Enterococcus faecalis) [µg/mL] | MST (Plasmodium berghei [4]) [days] | MST (Plasmodium berghei [7]) [days] | MST (Plasmodium berghei [8]) [days] | MIC (Shigella sonnei) [µg/mL] | MIC (Staphylococcus aureus [10]) [µg/mL] | Activity (Plasmodium berghei [11]) | MIC (Escherichia coli) [µg/mL] | MST (Plasmodium berghei [12]) [days] | Activity (Plasmodium berghei [13]) | MIC (Staphylococcus aureus [14]) [µg/mL] | Activity (Plasmodium berghei [16]) | MST (Plasmodium berghei [17]) [days] | Activity (Plasmodium berghei [18]) | MIC [19] [µg/mL] | MST (Plasmodium berghei [20]) [days] | MST (Plasmodium gallinaceum [24]) [days] | MST (Plasmodium berghei [25]) [days] | MST (Plasmodium gallinaceum [31]) [days] | other results |
| --- | --- | --- | --- | --- | --- | --- | --- | --- | --- | --- | --- | --- | --- | --- | --- | --- | --- | --- | --- | --- | --- |
| Nc1nc(N)c2cc(Sc3ccc(O)cc3)ccc2n1 | 20 (≈ 70.3 µM) | < 0.25 | 2.9 | 11.9 | 6.3 | 15 (≈ 52.8 µM) | < 0.25 | Active | 2.5 (≈ 8.79 µM) | 13.6 | Active | < 0.25 | Active | 10.9 | Active | > 25 |  |  |  |  | Activity (Plasmodium gallinaceum [1]): Active; Activity (Plasmodium gallinaceum [2]): Active; Activity (Plasmodium gallinaceum [3]): Active; Activity (Plasmodium gallinaceum [5]): Active; Activity (Plasmodium gallinaceum [6]): Active; Activity (Plasmodium gallinaceum [9]): Active; MST (Plasmodium gallinaceum [15]): 4.7 days |
| COc1cccc(Sc2ccc3nc(N)nc(N)c3c2)c1 | > 25 | < 0.25 | 0.3 | 5.7 | 1.5 | 1 (≈ 3.35 µM) | < 0.25 |  | < 0.25 | 11.7 | Active | < 0.25 |  | 8.3 | Active |  | 12.2 |  |  |  |  |
| CC(C)(C)c1ccc(Sc2ccc3nc(N)nc(N)c3c2)cc1 | > 25 | < 0.25 | 1.1 | 2.6 | 1 | 15 (≈ 46.2 µM) | < 0.25 |  | 10 (≈ 30.8 µM) | 7.8 | Active | < 0.25 |  | 6 | Active |  | 17.9 |  |  |  | Ratio (Plasmodium berghei [21]): 4.1; SD90 (Plasmodium berghei [22]): 18 mg/kg/day |
| Nc1nc(N)c2cc(Sc3cccc(Cl)c3)ccc2n1 | > 25 | 10 (≈ 33 µM) | 0.5 | 3.5 | 0.5 | 20 (≈ 66.1 µM) | 5 (≈ 16.5 µM) |  | 10 (≈ 33 µM) | 4.9 | Active | 2.5 (≈ 8.26 µM) |  | 4.3 | Active | > 25 | 20.9 |  |  |  |  |
| Nc1nc(N)c2cc(Sc3cccc4ccccc34)ccc2n1 | > 25 | 10 (≈ 31.4 µM) | 7.9 | 14.5 | 10.7 | 20 (≈ 62.8 µM) | 5 (≈ 15.7 µM) | Active | 15 (≈ 47.1 µM) |  | Active | 2.5 (≈ 7.85 µM) | Active | 18.4 | Active | > 25 |  | 17.4 | 1.9 | 12.4 | MST (Plasmodium gallinaceum [23]): 7.2 days; MST (Plasmodium gallinaceum [26]): 9 days; MST (Plasmodium gallinaceum [27]): 11.8 days; MST (Plasmodium berghei [28]): 0.5 days; MST (Plasmodium gallinaceum [29]): 2.2 days; MST (Plasmodium berghei [30]): 1.1 days |
| Nc1nc(N)c2cc(Sc3ccccc3Cl)ccc2n1 | > 25 | < 0.25 | 0.3 | 0.5 | 0.5 | 2 (≈ 6.61 µM) | < 0.25 | Active | < 0.25 | 10.9 | Active | < 0.25 |  | 8.1 |  |  | 18.9 | 6 | 0.3 | 0 | MST (Plasmodium gallinaceum [32]): 19.8 days; MST (Plasmodium gallinaceum [33]): 20.8 days; MST (Plasmodium gallinaceum [34]): 7.6 days; MST (Plasmodium gallinaceum [35]): 10.2 days |
